From patent US9884821B2, “N1-cyclic amine-N5-substituted biguanide derivatives, methods of preparing the same and pharmaceutical composition comprising the same” (IMMUNOMET THERAPEUTICS INC., priority 2013, dated 2018)

What was measured:
[1] = test system: AMPK; assay: AMPK activation effect (AMPK [pT172] ELISA) in MCF7 cells; assay type: cell-based, human; conditions: 24 hours; for AMPK activation effect (%) 10 μM / AMPK activation effect (%) 50 μM / AMPK activation effect (%) 5 μM: AMPKα Thr172 phosphorylation relative to untreated cells; for AC150: concentration at which AMPK activation reached 150%
Outline: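 MCF7 cells in DMEM/10% FBS were treated 24 h with compounds at 5, 10 and 50 uM. Lysates (20 μg protein) were assayed by ELISA for AMPKα Thr172 phosphorylation as the activation read-out.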

[2] = test system: HCT116 cells; assay: Effect of inhibiting cancer cell proliferation (MTT) in HCT116 cells; assay type: cell-based, human; conditions: for inhibition at 100 µM: read-out: Cell growth inhibition (%) at 100 μM; for inhibition at 25 µM: read-out: Cell growth inhibition (%) at 25 μM
Outline: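 HCT116 colorectal cells (about 5,000 per well, DMEM with 10% FBS) treated with 100, 25, 6.25, 1.56 or 0.39 μM compound for 48 h. MTT added for 3 h, formazan read at 560 nm; GIC50 taken from viability relative to untreated cells.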

[3] = Homo sapiens, HCT-116, 48 h, 25 μM

GI50 ([2]; Homo sapiens, HCT-116, 48 h) [µM] | GI50 ([2]; 48 hours, hydrochloride) [µM] | Structure (SMILES) | AMPK activation effect (%) 10 μM [1] [%] | AMPK activation effect (%) 50 μM [1] [%] | AC150 [1] [µM] | inhibition at 100 µM ([2]; Homo sapiens, HCT-116, 48 h) [%] | AMPK activation effect (%) 5 μM [1] [%] | inhibition at 25 µM [2, 3] [%] | AMPK activation effect (%) 5 μM ([1]; hydrochloride) [%] | AMPK activation effect (%) 10 μM ([1]; hydrochloride) [%] | AC150 ([1]; hydrochloride) [µM] | Cell growth inhibition (%) at 25 μM ([2]; 25 μM, 48 hours, hydrochloride) [%]
3.2 | – | CC1CCCC(C)N1C(=N)NC(=N)Nc1cccc(OC(F)(F)F)c1.Cl (stereo not shown) [Example 90, N1-(2,6-dimethyl)piperidine-N5-(3-trifluoromethoxy)phenyl biguanide hydrochloride] | 317 | – | 0.8 | – | 281 | 100 | – | – | – | –
57 | – | Cc1cccc(NC(=N)NC(=N)N2CC=CCC2)c1.Cl [Example 49, N1-1,2,3,6-tetrahydropyridine-N5-(3-methyl)phenyl biguanide hydrochloride] | 319 | 917 | 1.9 | 91.8 | – | – | – | – | – | –
– | 7.1 | CC1CCCN(C(=N)NC(=N)Nc2ccc(F)c(C(F)(F)F)c2)C1.Cl (stereo not shown) [Example 85, N1-(3-methyl)piperidine-N5-(4-fluoro, 3-trifluoromethyl)phenyl biguanide hydrochloride] | – | – | – | – | – | – | 345 | 436 | 0.7 | 100.2
6.8 | – | CC1CCCN(C(=N)NC(=N)Nc2cccc(OC(F)(F)F)c2)C1.Cl (stereo not shown) [Example 83, N1-(3-methyl)piperidine-N5-(3-trifluoromethoxy)phenyl biguanide hydrochloride] | 398 | – | 0.5 | – | 352 | 100 | – | – | – | –
42.5 | – | Cc1ccc(NC(=N)NC(=N)N2CC=CCC2)cc1.Cl [Example 48, N1-1,2,3,6-tetrahydropyridine-N5-(4-methyl)phenyl biguanide hydrochloride] | 178 | 691 | 4.9 | 97.6 | – | – | – | – | – | –
8 | – | CC1CCCCN1C(=N)NC(=N)Nc1ccc(OC(F)(F)F)cc1.Cl (stereo not shown) [Example 72, N1-(2-methyl)piperidine-N5-(4-trifluoromethoxy)phenyl biguanide hydrochloride] | 386 | – | 2.0 | – | 210 | 100 | – | – | – | –

The remaining lines, values behind:

Structure (SMILES) | GI50 ([2]; Homo sapiens, HCT-116, 48 h) [µM] | GI50 ([2]; 48 hours, hydrochloride) [µM] | AMPK activation effect (%) 10 μM [1] [%] | AMPK activation effect (%) 50 μM [1] [%] | AC150 [1] [µM] | inhibition at 100 µM ([2]; Homo sapiens, HCT-116, 48 h) [%] | AMPK activation effect (%) 5 μM [1] [%] | inhibition at 25 µM [2, 3] [%] | AMPK activation effect (%) 5 μM ([1]; hydrochloride) [%] | AMPK activation effect (%) 10 μM ([1]; hydrochloride) [%] | AC150 ([1]; hydrochloride) [µM] | Cell growth inhibition (%) at 25 μM ([2]; 25 μM, 48 hours, hydrochloride) [%]
CC1=CCN(C(=N)NC(=N)NCc2ccc(C(F)(F)F)cc2)C1.Cl [Example 26, N1-(3-methyl)-1,2-dihydropyrrole-N5-(4-trifluoromethyl)benzyl biguanide hydrochloride] | 8.2 | – | 443 | 358 | 0.68 | 96.7 | – | – | – | – | – | –
Cl.N=C(NC(=N)N1CC=CCC1)Nc1ccc(F)c(C(F)(F)F)c1 [Example 32, N1-1,2,3,6-tetrahydropyridine-N5-(4-fluoro, 3-trifluoromethyl)phenyl biguanide hydrochloride] | 7.9 | – | 837 | – | 0.62 | 99.4 | – | – | – | – | – | –
Cl.N=C(NC(=N)N1CC=CC1)Nc1ccccc1 [Example 44, N1-1,2-dihydropyrrole-N5-phenyl biguanide hydrochloride] | > 100 | – | 289 | 577 | 1.7 | 27.8 | – | – | – | – | – | –
Cl.N=C(NC(=N)N1CC=CCC1)Nc1ccc(Cl)cc1 [Example 35, N1-1,2,3,6-tetrahydropyridine-N5-(4-chloro)phenyl biguanide hydrochloride] | 18.4 | – | 314 | – | 2.4 | 99.1 | – | – | – | – | – | –
Cl.N=C(NC(=N)N1CC=CCC1)Nc1ccc(OC(F)(F)F)cc1 [Example 28, N1-1,2,3,6-tetrahydropyridine-N5-(4-trifluoromethoxy)phenyl biguanide hydrochloride] | 8.4 | – | 732 | – | 0.15 | 100 | – | – | – | – | – | –
